The target in one assay is EP2 receptor (Mus musculus, UniProt Q62053). Conditions: read-out: affinity for the EP2 receptor; cited from earlier work.
Assay [1] concerns cultured mouse dorsal root ganglion neurons. Particulars: 20 micromolar, at 2 hours; cited from earlier work.
Assay [2] relates to mouse neuroblastoma cells. Particulars: cited from earlier work.
The test system of assay [3] is patients after nerve sparing RRP. Conditions: three months of intracavernous injections three times a week; patients completing treatment; cited from earlier work.
Assay [4] concerns dorsocaudal regions of rat major pelvic ganglia (DCR-MPG). The assay can be described thus: Neurite outgrowth in primary cultures of dorsocaudal regions of rat major pelvic ganglia. The format is cell-based, Sprague-Dawley rats. As for the experimental part:
The dorsocaudal regions of 24 major pelvic ganglia (DCR-MPG) were dissected from Sprague-Dawley rats. Each sample was placed on a reduced-growth factor Matrigel coated glasscover slide in a culture dish filled with serum-free medium. […] The ganglia cultures were incubated at 37° C. in a humidified atmosphere with 5% CO2. Digital photographs were taken of neurite growth after 96 hours.
Growth Factor Reduced Matrigel (Passaniti, A., et al., Lab. Invest. 1992 67:518-528) was purchased from Becton Dickinson (Mountain View, Calif.). Cell culture grade PGE1 was purchased from Sigma Chemical. (St. Louis, Mo.). RPIM-1640 and other cell culture reagents were purchased from GIBCO Invitrogen Corp. (Grand Island, N.Y.).
Male Sprague-Dawley rats, two-months old, were used in this study. All animal care, treatments, and procedures were approved by the institutional Committee on Animal Research. The rats were sacrificed by intraperitoneal injection of sodium pentobarbital (50 mg/kg) followed by bilateral thoracotomy and the removal of the dorsocaudal region of the major pelvic ganglia (DCR-MPG).
Each rat supplied a pair of DCR-MPG; one was used as control and the contralateral ganglion was treated with PGE1. The DCR-MPG isolated from Sprague-Dawley rats were cultured attached to Matrigel-coated glass coverslips. The coverslips were used as the supporting platform to facilitate samples processing for histological staining and examination. Coverslips were coated as follows. Growth Factor Reduced Matrigel (Becton Dickinson, Mountain View, Calif.) was diluted 3-fold in serum-free RPMI-1640 in a 35-mm culture dish on ice. The diluted Matrigel was then spread onto cold sterilized glass coverslips using a sterilized glass slide as spreader. The coated coverslips were placed in 35-mm culture dishes and incubated at 37° C. for 1 hr to allow the Matrigel to solidify. Each freshly dissected DCR-MPG was rinsed in phosphate-buffered saline (PBS), cut into equal thirds, placed on top of Matrigel coated coverslips and covered by 50 μl cold Growth Factor Reduced Matrigel which had been kept in liquid form. After a 5-min incubation at 37° C. to allow the Matrigel to polymerize, 3 ml of serum-free RPMI 1640 medium supplemented with 1×penicillin-streptomycin-fungizone (Cell Culture Facility, University of California, San Francisco) was added. […] The ganglia cultures were maintained at 37° C. in a humidified atmosphere with 5% CO2.
After 2 to 3 days of incubation, the ganglia and outgrowing neurites were stained for nicotinamide adenine dinucleotide phosphate (NADPH) diaphorase as an indication of nitric oxide synthase (NOS) expression. The culture medium was removed from each culture and replaced with a fixative solution of 2% formaldehyde, 0.002% picric acid in 0.1 M phosphate buffer, pH 8.0. After 20 min of fixation, the tissue was rinsed three times, 10 min each, with phosphate buffer, pH 8.0. The tissue was then incubated with 0.1 mM NADPH, 0.2 mM nitroblue tetrazolium, 0.2% Triton X-100 in buffer for approximately 30 min at room temperature with constant microscopic monitoring for color development. When a deep blue color was detected for NADPH-diaphorase positive nerves, the reaction was terminated by washing the tissues with buffer three times, 10 min each. The coverslips containing the ganglia were then mounted onto glass slides using buffered glycerin as mounting medium.
Neurites were photographed using a professional DCS-420 digital camera (Eastman Kodak, Rochester, N.Y.) connected to an Olympus microscope and an Apple Macintosh PowerMac computer. All samples were photographed and the images were stored for later analysis. The digital images were analyzed using Chemilmager 4000 software (Alpha Innotech Corporation, San Leandro, Calif.) to determine the maximum length of the outgrowing neurites fibers.
Statistical analysis was performed using computer software from Primer of Biostatistics, 3rd ed. (Glantz SA, McGraw-Hill, Inc. New York, 1992). […]

The test system of assay [5] is mouse neuroblastoma cells. The assay can be described thus: Neurite extension in neuroblastoma cells in culture (Prasad, 1972). The format is cell-based. Particulars: converted from micrograms/ml. The source says:
“Neurite” is a broad term used to describe both axons and dendrites produced by a nerve cell; most commonly used to cover all cellular processes produced by neurons in culture (Kendrew, J., editor, The Encyclopedia of Molecular Biology, Blackwell Science Ltd., Oxford, 1994, page 709).

Where “and” joins values, the source holds several entries; their conditions need not be identical. Identical values can stand only once. Like-named read-outs stand apart in the source and are kept apart here.

EP2 receptor, sequence (Q62053 whole entry): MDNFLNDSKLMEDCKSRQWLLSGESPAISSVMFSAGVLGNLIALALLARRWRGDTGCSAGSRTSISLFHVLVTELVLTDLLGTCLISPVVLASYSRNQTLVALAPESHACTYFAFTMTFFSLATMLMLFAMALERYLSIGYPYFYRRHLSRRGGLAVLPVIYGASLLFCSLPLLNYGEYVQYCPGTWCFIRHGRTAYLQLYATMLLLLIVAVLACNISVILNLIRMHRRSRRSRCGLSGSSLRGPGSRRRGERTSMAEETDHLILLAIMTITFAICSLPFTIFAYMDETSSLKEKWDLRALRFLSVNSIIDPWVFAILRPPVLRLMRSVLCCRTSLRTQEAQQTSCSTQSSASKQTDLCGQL

Consider `CCCCC[C@H](O)/C=C/[C@H]1[C@H](O)CC(=O)[C@@H]1C/C=C\CCCC(=O)O` [PGE2, Prostaglandin E2], for which, at EP2 receptor, the Kd is roughly 10 nM. Also, in assay [1], the neurite extension entry was “significantly different from control”. Further, in assay [2], the “optimum concentration for neurite extension” value is on record as “same optimum concentration”.

As to Prostaglandin E1 [PGE1], the “patients reporting recovery of spontaneous erections sufficient for intercourse” value in assay [3] was 8 of the 12. Moreover, the “Neurite Growth (Length of longest neurite), Mean” value was 168.00 μm in assay [4] (1 μM PGE1, 96 hours culture); 229.33±10.7 μm and 229.33 μm in assay [4] (10 μM PGE1, 96 hours culture); 244.00 μm in assay [4] (20 μM PGE1, 96 hours culture); 250.29 μm in assay [4] (30 μM PGE1, 96 hours culture); 138.00 μm in assay [4] (60 μM PGE1, 96 hours culture); 112.00 μm in assay [4] (100 μM PGE1, 96 hours culture). For the same compound, the fiber length induced in assay [4] (30 μM PGE1) was determined as 250 ± 38.1 µm. Moreover, the “peak neurite growth (mean ± standard deviation)” value in assay [4] (30 μM PGE1) was found to be 250±63 micrometers. Moreover, in assay [4] (60 μM, 100 μM), the “maximum neurite extension at high doses” value is recorded as “smaller maximum neurite extension”. The “effect on neurite outgrowth of NADPH positive cells” value in assay [4] (primary cultures, 1-100 μM) is “enhance neurite outgrowth”. In assay [4] (tested at 1, 10, 20, 30, 60 or 100 μM), the “PGE1 concentration at which the maximum effect on neurite outgrowth was observed” value was 30 µM. Further, the “optimum concentration for neurite extension” value in assay [2] is on record as “about 10 micrograms/ml”; in assay [5], “about 30 micromolar”. The “optimum time of exposure” value in assay [2] is 3 to 5 days.

The values are drawn from patent US20040241244A1, “Neuronal growth enhancement by prostaglandin compositions and methods” (NexMed (Holdings) Inc., priority 2003, published 2004).
